What all share (assay): relative viability (nuclei count vs DMSO), 5 days (fraction); higher = more cells survive
Compound in experiment [1]: C1/C(=C\C2=CC=CS2)/C(=O)/C(=C/C3=CC=CS3)/C1 + CS(=O)(=O)N1CCN(Cc2cc3nc(-c4cccc5[nH]ncc45)nc(N4CCOCC4)c3s2)CC1 [Pictilisib] (partner 1 µM)
Put shortly: (§1)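 For relative viability, nuclei counts in treated wells were divided by those in vehicle wells. Lung cancer cell lines had been pin-tool dosed in 1536-well plates the day after seeding and cultured for 5 days, then fixed and stained in one step (final 0.05% Triton X-100, 1% formaldehyde, 1 ug/ml Hoechst) and imaged at 4×. Doses were one drug alone or a fixed anchor-drug dose plus five library-drug doses (not always all listed) in √10 steps, and values are duplicate-plate medians.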

Compound in experiment [2]: C1=CC(=CC=C1C2=CC(=C(S2)NC(=O)N)C(=O)N)F [TPCA-1] + N=C(N)NC(=N)NCCc1ccccc1 [Phenformin] (partner 250 µM)
The essentials: as §1

Compound in experiment [3]: C1=CC(=CC=C1C2=CC(=C(S2)NC(=O)N)C(=O)N)F [TPCA-1] + O=C(c1cc(Cc2n[nH]c(=O)c3ccccc23)ccc1F)N1CCN(C(=O)C2CC2)CC1 [Olaparib] (partner 8 µM)
Put shortly:
as §1

Compound in experiment [4]: C[C@]12O[C@H](C[C@]1(O)CO)n1c3ccccc3c3c4c(c5c6ccccc6n2c5c31)CNC4=O [Lestaurtinib] + C[C@@H](Oc1cc(-c2cnn(C3CCNCC3)c2)cnc1N)c1c(Cl)ccc(F)c1Cl [Crizotinib] (partner 1 µM)
Put shortly: as §1

On to SK-MES-1, for which the relative viability in experiment [1] (first compound 0.2 µM) was found to be 0.282; in experiment [1] (first compound 0.6325 µM), 0.355; in experiment [1] (first compound 2 µM), 0.391; in experiment [1] (first compound 6.325 µM) it was 0.268; in experiment [1] (first compound 20 µM), 0.382; in experiment [2] (first compound 0.04 µM) it was 0.679. Also, the relative viability worked out at 0.612 in experiment [2] (first compound 0.1265 µM); 0.668 in experiment [2] (first compound 0.4 µM); 0.596 in experiment [2] (first compound 1.265 µM); 0.498 in experiment [2] (first compound 4 µM); 0.696 in experiment [3] (first compound 0.04 µM); 0.577 in experiment [3] (first compound 0.1265 µM). Moreover, the relative viability in experiment [3] (first compound 0.4 µM) was 0.801; in experiment [3] (first compound 1.265 µM), 0.611; in experiment [3] (first compound 4 µM), 0.369; in experiment [4] (first compound 0.005 µM) it was 1.02; in experiment [4] (first compound 0.01581 µM), 0.964; in experiment [4] (first compound 0.05 µM) it was 0.92. Besides, the figures for the relative viability in experiment [4] (first compound 0.1581 µM) and in experiment [4] (first compound 0.5 µM) were 0.505 and 0.281, respectively.
For the cell line SW 1573, the relative viability in experiment [1] (first compound 0.2 µM) came to 0.54; in experiment [1] (first compound 0.6325 µM), 0.523; in experiment [1] (first compound 2 µM) it was 0.551; in experiment [1] (first compound 6.325 µM) it was 0.377; in experiment [1] (first compound 20 µM), 0.512; in experiment [2] (first compound 0.04 µM), 0.341. Also, the relative viability in experiment [2] (first compound 0.1265 µM) stood at 0.323; in experiment [2] (first compound 0.4 µM) it was 0.411; in experiment [2] (first compound 1.265 µM), 0.296; in experiment [2] (first compound 4 µM), 0.331; in experiment [3] (first compound 0.04 µM) it was 0.539; in experiment [3] (first compound 0.1265 µM), 0.414. Also, the relative viability was determined as 0.481 in experiment [3] (first compound 0.4 µM); 0.476 in experiment [3] (first compound 1.265 µM); 0.48 in experiment [3] (first compound 4 µM); 0.929 in experiment [4] (first compound 0.005 µM); 0.88 in experiment [4] (first compound 0.01581 µM); 0.544 in experiment [4] (first compound 0.05 µM). The results for the relative viability in experiment [4] (first compound 0.1581 µM) and in experiment [4] (first compound 0.5 µM) were 0.423 and 0.343, respectively.

The record behind these values is the supplement of paper PMC10307832.
